# Measurements as given in patent US9440941B2, “Substituted chroman-6-yloxy-cycloalkanes and their use as pharmaceuticals” (SANOFI, priority 2013, dated 2016).
# How the values were obtained:
# human NCX1 [1] = biological target: T1, human NCX1 (Homo sapiens, UniProt P32418); assay: Inhibition of Ca2+ influx into cells (NCX1 reverse mode), FLIPR Fluo-4 assay; assay type: cell-based; details: inhibition of NCX1 in reverse mode (Ca2+ influx into cells); read-out: NCX1rv IC50
# T1 construct: expressed in transfected cells
# How it was run: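 Ca2+ influx via reverse-mode exchange was evoked with gramicidin (20 µM final) after 45 min compound exposure at 16 °C in stably transfected CHO cells. Fluo-4 signal (520 nm) was followed on FLIPR at 2 s intervals. Max–min fluorescence gave percentage inhibition, from which IC50 was calculated.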
# human NCX1 [2] = biological target: T1, human NCX1; assay: Inhibition of Ca2+ efflux out of cells (NCX1 forward mode), FLIPR calcium assay; assay type: cell-based; details: CHO cells stably expressing human NCX1; Ca2+ efflux after Ionomycin; read-out: NCX1fw IC50 (inhibition of NCX1 in forward mode)
# Text: The sodium/calcium exchanger NCX1 can transport calcium ions and sodium ions through the cell membrane. The transport is an exchange of Ca^2+ and Na^+ in two directions depending on membrane potential and ion gradients. At the first direction, named “forward mode” or “calcium export mode”, Ca^2+ is transported out of the cell and Na^+ is transported into the cell. At the other direction, named “reverse mode” or “calcium import mode”, the transport directions are vice versa. The effect of the compounds of the invention on NCX1 was determined in CHO cells stably expressing human NCX1 (gene symbol SLC8A1; cf. WO 2009/115238). The assay is based on the monitoring of intracellular Ca^2+ concentrations using a calcium-sensitive fluorescence dye which is detected by means of a FLIPR device (Fluorimetric Imaging Plate Reader, Molecular Devices).
# Assay Technology—Forward Mode
# The assay is based on the monitoring of intracellular Ca^2+ concentrations using the PBX Calcium Assay Kit from BD (Becton, Dickinson and Company) with calcium indicator dye 51-9000177BKa (BD, 640177). CHO cells expressing NCX1 were loaded with the dye, and after a preincubation period with the test compound, lonomycin (Calbiochem, 407950) was added. lonomycin is an ionophor for Ca^2+ ions mediating an increase of intracellular Ca^2+ ions. Consequently, intracellular Ca^2+ ions are exchanged against extracellular Na^+ ions (Ca^2+ efflux, forward mode). The decrease of intracellular Ca^2+ ions was detected by measuring the fluorescence of the calcium indicator dye at a wavelength of 520 nm by a FLIPR device.
# Briefly, similarly as for the reverse mode, for the forward mode transport assay 18000 cells per well were seeded into a 96 well microplate (Corning COSTAR 3904) and incubated overnight in culture medium (cf. above). A total volume of 100 μl medium per well was used. For the preparation of the FLIPR assay, the culture medium was removed from the plates and 100 μl of assay buffer (133.8 mM NaCl (Sigma, S5886); 4.7 mM KCl (Sigma, P3911); 1.25 mM MgCl2 (Merck, 1.05833.0250); 3.5 mM CaCl2 (Merck, 1.02083.0250); 5 mM glucose (Sigma, G7021); 10 mM Hepes (Sigma, H4034); pH 7.4)) were added to each well in a washing step. Assay buffer was removed, and 100 μl of a solution of the test compound in assay buffer in different concentrations were added into the wells. Further, 100 μl of dye solution (0.09% (v/v) calcium indicator dye, 9.1% (v/v) signal enhancer (from PBX Calcium Assay Kit); in assay buffer) were added into each well. The plates were incubated in the dark at room temperature for 60 min. Meanwhile a 10 μM solution of lonomycin in assay buffer (additionally containing 0.05% fetal calf serum (cf. above); 4° C.) was prepared and stored in the wells of a 96 well microplate (96 well microplate, polypropylene, U-shape (Greiner Bio-One, 650201)). The fluorescence monitoring was performed at 60 measuring points with measurement intervals of 2 sec. After the fifth measuring point, 50 μl of the lonomycin solution were added to each well of the assay plate to give a final lonomycin concentration of 2 μM. For the determination of the IC50 values the minimal fluorescence value was subtracted from the maximal fluorescence value for the fifteenth to fifty-fifth measuring points. The calculation of the IC50 values via the percentage inhibitions of Ca^2+ efflux out of cells (forward mode) effected by the test compound was performed in Biost@t Speed 2.0. “NCX1fw IC50” in Table 2 means the IC50 value (in μM (micromol/liter)) for inhibition of NCX1 in forward mode.
Compound,IC50 (human NCX1 [1]) [nM],IC50 (human NCX1 [2]) [nM]
"Cc1ccccc1C1CCc2cc(O[C@H]3CC[C@H](N)CC3)ccc2O1.Cl (stereo partly drawn) [Example 156, trans-4-(2-o-Tolyl-chroman-6-yloxy)-cyclohexylamine]",600,1500
"Cc1ccccc1C1CCc2cc(OC3CCC(NCc4c(C)nn(C)c4C)CC3)ccc2O1 (centres unmarked) [Example 177, 4-(2-o-Tolyl-chroman-6-yloxy)-N-(1,3,5-trimethylpyrazol-4-ylmethyl)-cyclohexylamine]",3200,200
"O=C(N[C@H]1CC[C@H](Oc2ccc3c(c2)CCC(c2ccccc2)O3)CC1)[C@@H]1CCCN1 (stereo partly drawn) [Example 180, (S)—N-[trans-4-(2-Phenyl-chroman-6-yloxy)-cyclohexyl]-pyrrolidine-2-carboxamide]",800,10000
"Cc1ccccc1[C@@H]1CCc2cc(O[C@H]3CC[C@H](C(=O)NCCOP(=O)([O-])[O-])CC3)ccc2O1.[Na+].[Na+] [Example 303, Phosphoric acid mono-(2-{[trans-4-((S)-2-o-tolyl-chroman-6-yloxy)-cyclohexanecarbonyl]-amino}-ethyl) ester disodium salt]",100,2500

# Further lines, results first:
IC50 (human NCX1 [1]) [nM],IC50 (human NCX1 [2]) [nM],Compound
400,2200,"Cc1ccccc1C1CCc2cc(OC3CCC(C(=O)NCc4ccno4)CC3)ccc2O1 (centres unmarked) [Example 158, N-(Isoxazol-5-ylmethyl)-4-(2-o-tolyl-chroman-6-yloxy)-cyclohexanecarboxamide]"
200,2500,"NCC(=O)N[C@H]1CC[C@H](Oc2ccc3c(c2)CC[C@@H](c2ccccc2)O3)CC1 [Example 159, 2-Amino-N-[trans-4-((S)-2-phenyl-chroman-6-yloxy)-cyclohexyl]-acetamide]"
150,500,"Cc1ccccc1[C@@H]1CCc2cc(O[C@H]3CC[C@H](C(=O)NCCO)CC3)ccc2O1 [Example 268, trans-4-((S)-2-o-tolyl-chroman-6-yloxy)-cyclohexanecarboxylic acid (2-hydroxy-ethyl)-amide]"
